1 compound from US7960438B2, “Use of agomelatine in obtaining medicaments intended for the treatment of generalized anxiety disorder” (Les Laboratoires Servier, priority 2006, dated 2011) can be followed below.

The structures appear in SMILES notation.

The data set relates to patients suffering from Generalized Anxiety Disorder. Description: Clinical study versus placebo in Generalized Anxiety Disorder. Type of data set: in vivo. The method, then:
A clinical study versus placebo has been carried out in 121 patients. Those 121 patients have been randomised in two parallel groups and received either agomelatine at 25 mg per day or placebo.
After treatment for two weeks, and in case of low response, doses have been increased to 50 mg per day in double blind study for patients receiving agomelatine with a IVRS system (Interactive Voice Response System). Treatment for 12 weeks was carried out.
The efficacy has been appreciated with evaluation tools recommended by the health authorities, such as the Hamilton Anxiety Scale (Hamilton M., J. Neurol. Neurosurg. Psychiat., 1959, 23, 56-62), or the Sheehan Disability Scale (International Clinical Psychopharmacology, 1996, 11, 89-95). The acceptability profile has also been evaluated.

Turning to `COc1ccc2cccc(CCNC(C)=O)c2c1` [agomelatine, N-[2-(7-methoxy-1-naphthyl)ethyl]acetamide], under “25 mg per day (up to 50 mg per day), 12 weeks”, the “acceptability profile for the patients” value is given as “good acceptability profile”. In addition, the “difference between agomelatine group and placebo group on the total score of the Hamilton Anxiety Scale” value (121 patients, 25 mg per day (increased to 50 mg per day in case of low response after two weeks), 12 weeks, p=0.040) was −3.28. The “discontinuation syndrome when the treatment was stopped” value (after stopping 12 weeks treatment) is “absence of the discontinuation syndrome”.
